The record followed here is patent publication US4918105A, “Novel compounds with collagenase-inhibiting activity, a process for their preparation and pharmaceutical compositions in which these compounds are present” (SA Laboratoire Roger Bellon, priority 1987, dated 1990).

Like-named read-outs stand apart in the source and are kept apart here.

In test [1] the target is T1, Porcine collagenase (Sus scrofa, UniProt P21692).
T1 construct: isolated from synovial cells in culture; endogenous in cells; host or cells: porcine synovial cells in culture
T1 sequence (P21692 100-469): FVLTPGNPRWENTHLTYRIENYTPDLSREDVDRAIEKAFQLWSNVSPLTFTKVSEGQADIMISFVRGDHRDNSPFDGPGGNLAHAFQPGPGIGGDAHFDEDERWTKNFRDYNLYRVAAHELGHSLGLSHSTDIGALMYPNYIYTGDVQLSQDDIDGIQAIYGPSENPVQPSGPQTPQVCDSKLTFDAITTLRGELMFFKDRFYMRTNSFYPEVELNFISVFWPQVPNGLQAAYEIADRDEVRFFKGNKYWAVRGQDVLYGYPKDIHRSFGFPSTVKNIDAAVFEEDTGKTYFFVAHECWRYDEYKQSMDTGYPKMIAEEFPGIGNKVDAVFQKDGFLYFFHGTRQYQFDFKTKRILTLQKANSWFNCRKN
The test is described as follows: Specificity of the inhibition: porcine collagenase. It is filed as biochemical. The note with it: for inhibition at 10 µM: 10^-5 M; for inhibition at 0.1 µM: 10^-7 M. The method, then:
(§1) The anticollagenase activity of the compounds according to the present invention was determined on synovial collagenase of porcine or human origin, isolated from synovial cells in culture according to the procedure described by Cawston and Barrett (Cawston and Barrett (1979), Anal. Biochem. 99, 340-345). The collagenase was incubated at 37° C. with radiolabeled collagen and its activity was determined by the release of the soluble peptides produced by enzymatic degradation of the collagen. The inhibitory concentration IC50 for each compound was determined by measuring the activity of the enzyme in the presence of the inhibitor at a concentration of between 10^-5 and 10^-8 M.
(§2) The specificity of the inhibition was measured by studying several other enzymes, including metalloporteases other than collagenase.

In test [2] the target is T2, Human collagenase (Homo sapiens, UniProt P03956).
T2 construct: isolated from synovial cells in culture; endogenous in cells; host or cells: human synovial cells in culture
T2 sequence (P03956 100-469): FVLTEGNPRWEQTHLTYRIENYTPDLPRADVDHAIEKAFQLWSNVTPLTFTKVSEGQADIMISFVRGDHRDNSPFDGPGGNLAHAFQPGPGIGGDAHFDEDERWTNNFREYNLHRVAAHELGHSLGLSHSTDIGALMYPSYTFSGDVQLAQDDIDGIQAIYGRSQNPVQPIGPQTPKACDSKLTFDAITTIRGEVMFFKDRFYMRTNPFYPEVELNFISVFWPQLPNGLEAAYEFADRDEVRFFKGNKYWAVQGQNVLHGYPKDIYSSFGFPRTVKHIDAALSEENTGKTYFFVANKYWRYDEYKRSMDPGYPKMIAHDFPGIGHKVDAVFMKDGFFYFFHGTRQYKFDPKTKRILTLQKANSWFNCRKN
The test is described as follows: Specificity of the inhibition: human collagenase. The conditions noted are these: for inhibition at 10 µM: 10^-5 M; for inhibition at 0.1 µM: 10^-7 M. The test is classed as biochemical. The method, then: as §1, §2

The target in test [3] is ACE (Homo sapiens, UniProt P12821). In words: Specificity of the inhibition: ACE. The note with it: for inhibition at 10 µM: 10^-5 M; for inhibition at 0.1 µM: 10^-7 M. It is filed as biochemical. How it is done:
as §2

For test [4], the target named is T3, Carboxypeptidase A (Bos taurus, UniProt P00730).
T3 sequence (P00730 111-419): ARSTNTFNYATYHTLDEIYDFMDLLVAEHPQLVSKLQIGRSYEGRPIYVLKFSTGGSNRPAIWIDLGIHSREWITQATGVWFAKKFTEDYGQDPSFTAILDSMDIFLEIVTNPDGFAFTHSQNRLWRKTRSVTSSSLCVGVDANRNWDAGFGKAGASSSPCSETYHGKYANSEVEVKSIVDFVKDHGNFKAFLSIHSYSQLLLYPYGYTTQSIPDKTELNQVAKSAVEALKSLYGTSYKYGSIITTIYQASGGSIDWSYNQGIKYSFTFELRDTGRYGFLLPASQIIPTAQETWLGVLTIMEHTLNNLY
In words: Specificity of the inhibition: carboxypeptidase A. It is filed as biochemical. The conditions noted are these: for inhibition at 10 µM: 10^-5 M; for inhibition at 0.1 µM: 10^-7 M. How it is done: as §2

Test [5] addresses T4, Carboxypeptidase B (Sus scrofa, UniProt P09955).
T4 sequence (P09955 111-416): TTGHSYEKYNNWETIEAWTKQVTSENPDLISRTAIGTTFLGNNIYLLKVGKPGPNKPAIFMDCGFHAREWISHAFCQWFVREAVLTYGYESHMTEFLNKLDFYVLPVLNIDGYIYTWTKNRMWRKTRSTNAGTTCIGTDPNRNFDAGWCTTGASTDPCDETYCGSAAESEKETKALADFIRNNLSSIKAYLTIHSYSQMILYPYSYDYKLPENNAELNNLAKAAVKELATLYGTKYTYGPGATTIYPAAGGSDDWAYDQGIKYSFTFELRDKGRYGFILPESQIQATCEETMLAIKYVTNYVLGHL
In words: Specificity of the inhibition: carboxypeptidase B. It is filed as biochemical. The note with it: for inhibition at 10 µM: 10^-5 M; for inhibition at 0.1 µM: 10^-7 M. The method, then:
as §2

In test [6] the target is α-Chymotrypsin (Bos taurus, UniProt P00766). The test is described as follows: Specificity of the inhibition: α-chymotrypsin. It is filed as biochemical. The conditions noted are these: for inhibition at 10 µM: 10^-5 M; for inhibition at 0.1 µM: 10^-7 M. How it is done:
as §2

Test [7] concerns the target Plasmin (Homo sapiens, UniProt P00747). The test is described as follows: Specificity of the inhibition: plasmin. The test is classed as biochemical. The note with it: for inhibition at 10 µM: 10^-5 M; for inhibition at 0.1 µM: 10^-7 M. The method, then:
as §2

In test [8] the target is Thrombin (Homo sapiens, UniProt P00734). In words: Specificity of the inhibition: thrombin. The test is classed as biochemical. The conditions noted are these: for inhibition at 10 µM: 10^-5 M; for inhibition at 0.1 µM: 10^-7 M. How it is done:
as §2

In test [9] the target is T5, Trypsin (Bos taurus, UniProt P00760).
T5 sequence (P00760 24-246): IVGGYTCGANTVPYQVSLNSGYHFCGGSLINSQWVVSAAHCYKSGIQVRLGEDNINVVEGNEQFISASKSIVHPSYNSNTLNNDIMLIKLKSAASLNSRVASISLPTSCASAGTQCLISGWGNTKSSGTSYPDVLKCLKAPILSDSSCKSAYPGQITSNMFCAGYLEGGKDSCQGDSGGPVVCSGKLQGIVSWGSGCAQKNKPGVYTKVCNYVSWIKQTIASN
The test is described as follows: Specificity of the inhibition: trypsin. The note with it: for inhibition at 10 µM: 10^-5 M; for inhibition at 0.1 µM: 10^-7 M. It is filed as biochemical. The method, then:
as §2

Test [10] concerns the target T6, Papain (Carica papaya, UniProt P00784).
T6 sequence (P00784 134-345): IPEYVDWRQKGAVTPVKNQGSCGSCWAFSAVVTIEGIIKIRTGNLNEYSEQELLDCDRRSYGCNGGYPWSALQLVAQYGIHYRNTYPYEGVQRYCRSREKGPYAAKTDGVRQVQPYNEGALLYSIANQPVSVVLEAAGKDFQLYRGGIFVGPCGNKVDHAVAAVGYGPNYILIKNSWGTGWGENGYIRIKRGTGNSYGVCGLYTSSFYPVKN
In words: Specificity of the inhibition: papain. It is filed as biochemical. The conditions noted are these: for inhibition at 10 µM: 10^-5 M; for inhibition at 0.1 µM: 10^-7 M. How it is done:
as §2

The target of test [11] is Pepsin (Sus scrofa, UniProt P00791). In words: Specificity of the inhibition: pepsin. It is filed as biochemical. The note with it: for inhibition at 10 µM: 10^-5 M; for inhibition at 0.1 µM: 10^-7 M. How it is done:
as §2

Test [12] has as its target synovial collagenase of porcine or human origin. The test is described as follows: Anticollagenase activity: release of soluble peptides from radiolabeled collagen. The test is classed as biochemical. The method, then: as §1
Representative results of these tests are given for the compounds according to the invention in Table I.

Test [13] concerns bone resorption. In words: Bone resorption model in isolated organ (Ca++ release). It is filed as cell-based. The source says:
Anticollagenase activity has also been determined in a bone resorption model described by Delaisse et al. (Delaisse et al. (1985), Biochem. Biophys. Res. commun., 133, 483-490). This model, which utilizes the degradation of cartilage and bone in an isolated organ, is more physiological than direct determination of the enzyme activity in vitro. The results of the tests are collated in Table II; the same inhibitors are found to be active in both systems.

Where [14] appears, read: Table I, % inhibition 50, read-out: Concentration for 50 % inhibition (IC50), anticollagenase activity.

Chain of Pepsin (P00791 60-385): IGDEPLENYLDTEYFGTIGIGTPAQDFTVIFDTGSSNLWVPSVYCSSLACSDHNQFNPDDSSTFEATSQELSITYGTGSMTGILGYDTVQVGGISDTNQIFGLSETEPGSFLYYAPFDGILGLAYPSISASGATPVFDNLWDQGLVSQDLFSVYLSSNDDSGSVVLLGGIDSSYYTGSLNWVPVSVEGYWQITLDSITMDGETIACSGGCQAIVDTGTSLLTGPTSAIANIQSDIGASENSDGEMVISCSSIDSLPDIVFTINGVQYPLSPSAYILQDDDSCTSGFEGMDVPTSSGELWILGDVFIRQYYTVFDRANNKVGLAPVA
Chain of ACE (P12821 30-1306, species assumed): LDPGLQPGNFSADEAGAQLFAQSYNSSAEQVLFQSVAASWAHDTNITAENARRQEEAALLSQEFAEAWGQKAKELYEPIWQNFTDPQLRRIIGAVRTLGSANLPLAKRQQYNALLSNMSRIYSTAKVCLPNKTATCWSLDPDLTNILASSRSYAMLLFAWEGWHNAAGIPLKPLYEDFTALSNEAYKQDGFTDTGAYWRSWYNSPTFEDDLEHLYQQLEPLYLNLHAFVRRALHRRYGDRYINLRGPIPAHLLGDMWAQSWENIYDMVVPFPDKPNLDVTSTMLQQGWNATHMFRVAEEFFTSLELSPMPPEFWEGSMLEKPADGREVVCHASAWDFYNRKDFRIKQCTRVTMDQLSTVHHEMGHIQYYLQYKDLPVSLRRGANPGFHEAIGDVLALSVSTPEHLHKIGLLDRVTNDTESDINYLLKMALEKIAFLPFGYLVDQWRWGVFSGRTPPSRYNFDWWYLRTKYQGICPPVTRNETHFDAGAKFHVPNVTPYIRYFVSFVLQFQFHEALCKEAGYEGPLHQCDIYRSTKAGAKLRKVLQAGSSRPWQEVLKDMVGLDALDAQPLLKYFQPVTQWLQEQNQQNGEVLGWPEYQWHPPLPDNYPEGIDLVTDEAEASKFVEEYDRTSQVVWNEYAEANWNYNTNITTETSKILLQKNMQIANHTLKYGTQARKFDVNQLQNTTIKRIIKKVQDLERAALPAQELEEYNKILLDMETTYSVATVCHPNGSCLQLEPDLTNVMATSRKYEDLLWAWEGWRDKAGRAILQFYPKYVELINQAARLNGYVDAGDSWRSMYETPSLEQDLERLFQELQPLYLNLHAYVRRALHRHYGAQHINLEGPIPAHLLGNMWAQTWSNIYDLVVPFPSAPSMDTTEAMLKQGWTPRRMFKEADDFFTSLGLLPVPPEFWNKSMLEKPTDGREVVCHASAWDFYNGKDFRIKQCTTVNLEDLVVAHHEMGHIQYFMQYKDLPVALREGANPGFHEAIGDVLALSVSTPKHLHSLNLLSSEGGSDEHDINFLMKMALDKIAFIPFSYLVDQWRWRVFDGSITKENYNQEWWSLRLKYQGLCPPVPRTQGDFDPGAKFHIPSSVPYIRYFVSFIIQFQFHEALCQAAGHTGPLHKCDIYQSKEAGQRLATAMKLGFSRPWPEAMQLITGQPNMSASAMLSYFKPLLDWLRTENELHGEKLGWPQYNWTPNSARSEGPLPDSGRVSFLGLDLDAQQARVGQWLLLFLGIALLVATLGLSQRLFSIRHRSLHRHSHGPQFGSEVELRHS
Chain of Plasmin (P00747 581-810 limits assumed, species assumed): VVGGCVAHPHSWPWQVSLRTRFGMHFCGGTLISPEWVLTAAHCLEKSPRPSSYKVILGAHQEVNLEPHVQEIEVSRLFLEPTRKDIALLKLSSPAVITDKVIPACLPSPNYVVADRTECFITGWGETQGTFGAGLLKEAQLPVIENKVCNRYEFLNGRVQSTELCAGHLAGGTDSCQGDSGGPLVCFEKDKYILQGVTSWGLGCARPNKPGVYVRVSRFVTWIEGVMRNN
Chain of Plasmin (P00747 97-580 partner limits assumed, species assumed): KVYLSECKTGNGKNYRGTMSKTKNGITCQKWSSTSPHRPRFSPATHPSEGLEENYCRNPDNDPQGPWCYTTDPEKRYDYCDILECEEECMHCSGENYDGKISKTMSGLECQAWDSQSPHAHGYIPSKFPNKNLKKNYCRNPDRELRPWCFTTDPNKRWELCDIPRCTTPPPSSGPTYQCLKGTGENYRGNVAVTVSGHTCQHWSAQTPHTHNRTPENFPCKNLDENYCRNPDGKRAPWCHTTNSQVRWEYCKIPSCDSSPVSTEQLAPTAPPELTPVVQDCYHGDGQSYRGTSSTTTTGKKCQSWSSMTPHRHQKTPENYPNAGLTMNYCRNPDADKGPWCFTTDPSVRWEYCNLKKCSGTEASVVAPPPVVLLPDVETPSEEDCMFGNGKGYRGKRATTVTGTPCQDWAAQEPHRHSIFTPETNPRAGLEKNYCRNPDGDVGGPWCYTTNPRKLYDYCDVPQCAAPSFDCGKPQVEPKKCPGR

Consider `CC(C)CC(CC(=O)NO)C(=O)N[C@H](C(=O)NCc1ccccc1)C(C)C` (single isomer, unassigned) [Example 2, N-Benzyl-Nα-(N-hydroxy-2-isobutylsuccinamoyl)-L-valinamide], for which the inhibition at 10 µM amounted to 100% in [1]; 100% in [2]; 40% in test [3]; 0% in [4]; 0% in test [5]; 0% in test [6]. For the same compound, the inhibition at 10 µM in test [7] was 0%; in [8], 5%; in test [9], 0%; in test [10], 5%; in [11] it was 19%. In addition, the inhibition at 0.1 µM in test [1] worked out at 52%; in [2], 30%; in test [3], 4%; in [4] it was 0%; in [5], 0%; in test [6] it was 0%. Also, the inhibition at 0.1 µM in test [7], in test [8], in test [9], in test [10] and in [11] was 0% in each case.

On to `CC(C)CC(CC(=O)NO)C(=O)N[C@H](C(=O)NCc1ccccc1)C(C)C` (single isomer, unassigned) [Example 2, isomer A, N-Benzyl-Nα-(N-hydroxy-2-isobutylsuccinamoyl)-L-valinamide], for which, in test [12] (Table II, read-out: collagenase inhibition IC50), the IC50 was 16000 nM. The “% protection against bone resorption (Ca++ release)” value in test [13] (8 μM) and in test [13] (25 μM) was 0% in each case.

As for `CC(C)CC(CC(=O)NO)C(=O)N[C@H](C(=O)NCc1ccccc1)C(C)C` (single isomer, unassigned) [Example 3, N-Benzyl-Nα-(N-hydroxy-2-isobutylsuccinamoyl)-L-valinamide, B form], the IC50 in [12] (setting [14]) was determined as 35 nM; in [12] (Table II, listed as Example 2, isomer B, read-out: collagenase inhibition IC50), 35 nM. Also, the “% protection against bone resorption (Ca++ release)” value is listed as 90-100% in test [13] (8 μM, listed as Example 2, isomer B) and 90-100% in [13] (25 μM, listed as Example 2, isomer B).

As to `CC(C)CC(CC(=O)NO)C(=O)N[C@H](C(=O)NCc1ccc(C(F)(F)F)cc1)C(C)C` (single isomer, unassigned) [Example 4, N-(4-Trifluoromethylbenzyl)-Nα-(N-hydroxy-2-isobutylsuccinamoyl)-L-valinamide, B form], the IC50 in test [12] (setting [14]) came out at 80 nM.

Take `CC(C)CC(CC(=O)NO)C(=O)N[C@H](C(=O)NCCc1ccccc1)C(C)C` (single isomer, unassigned) [Example 5, N-Phenethyl-Nα-(N-hydroxy-2-isobutylsuccinamoyl)-L-valinamide, B form]: the IC50 in test [12] (setting [14]) turned out to be 75 nM.

As to `CC(C)CC(CC(=O)NO)C(=O)N[C@H](C(N)=O)C(C)C` (stereo partly drawn) [Example 1, Nα-(N-hydroxy-2-isobutylsuccinamoyl)-L-valinamide], the IC50 in [12] (setting [14]) worked out at 320 nM. Besides, the inhibition at 10 µM turned out to be 100% in test [1]; 100% in test [2]; 4% in test [3]; 0% in [4]; 0% in [5]; 0% in [6]. The inhibition at 10 µM in test [7] was 0%; in [8], 0%; in [9], 0%; in test [10], 5%; in test [11] it was 19%. Besides, the inhibition at 0.1 µM in [1] amounted to 23%; in [2] it was 12%; in [3] it was 0%; in [4] it was 0%; in [5], 0%; in [6], 0%. The inhibition at 0.1 µM in [7], in test [8], in test [9], in [10] and in [11] was 0% each time.

As usually defined, the inhibition is the drop in the measured response relative to a control, in per cent. A low value points to a response near the control.
